This passage reports GI50 and IC50 results from patent US9580390B2, “Indazole compounds as kinase inhibitors and method of treating cancer with same” (University Health Network, priority 2011, dated 2017).

For assay [1], the system named is colon cancer cells (HCT116). Description: Cancer cell line growth inhibition (SRB assay). It counts as cell-based. The note with it: Homo sapiens, HCT-116; read-out: Cancer Cell Line GI50 Range HCT116.
In a further assay the target is T1, human TTK (Homo sapiens, UniProt P33981).
T1 construct: amino terminal GST fusion of full length human TTK; purchased Invitrogen
T1 sequence (P33981 1-857): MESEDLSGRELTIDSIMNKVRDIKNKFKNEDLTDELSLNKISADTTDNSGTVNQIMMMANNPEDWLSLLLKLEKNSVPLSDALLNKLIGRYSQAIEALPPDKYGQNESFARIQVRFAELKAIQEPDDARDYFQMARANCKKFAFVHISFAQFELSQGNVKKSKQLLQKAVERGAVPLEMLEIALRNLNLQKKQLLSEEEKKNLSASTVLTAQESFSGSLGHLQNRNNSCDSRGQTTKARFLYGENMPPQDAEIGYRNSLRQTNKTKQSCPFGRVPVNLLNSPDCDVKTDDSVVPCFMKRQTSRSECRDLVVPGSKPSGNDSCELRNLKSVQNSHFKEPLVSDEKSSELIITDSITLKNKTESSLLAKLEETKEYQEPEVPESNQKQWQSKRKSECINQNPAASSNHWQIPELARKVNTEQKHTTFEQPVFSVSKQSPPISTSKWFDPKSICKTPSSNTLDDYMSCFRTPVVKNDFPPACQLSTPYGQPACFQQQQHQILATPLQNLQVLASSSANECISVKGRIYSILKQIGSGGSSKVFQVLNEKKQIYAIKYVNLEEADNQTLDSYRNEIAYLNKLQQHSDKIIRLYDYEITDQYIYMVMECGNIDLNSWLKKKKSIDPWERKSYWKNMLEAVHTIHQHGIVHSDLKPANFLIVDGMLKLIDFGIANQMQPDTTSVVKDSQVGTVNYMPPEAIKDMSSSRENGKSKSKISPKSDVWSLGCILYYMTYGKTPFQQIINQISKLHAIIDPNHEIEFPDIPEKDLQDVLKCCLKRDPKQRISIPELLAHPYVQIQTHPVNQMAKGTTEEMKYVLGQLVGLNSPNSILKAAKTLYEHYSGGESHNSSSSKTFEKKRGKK
Kind of assay: TTK inhibition assay (indirect ELISA). Format: biochemical. The following applies: read-out: TTK IC50 Range. In general terms: In an ELISA, binding on a coated surface is turned into a signal by an enzyme label.

The test system of another assay is TICs (Ovarian 2393A). Kind of assay: Ovarian tumor-initiating cell growth inhibition (Alamar Blue). Format: cell-based. The following applies: 144 h; Ovarian 2393A TICs, 6 days; read-out: Tumor Initiating Cell GI50 Range Ovarain 2393A.
The subject of the next assay is Breast cancer cells. Description: Cancer cell line growth inhibition (SRB assay). It counts as cell-based. The note with it: Homo sapiens; MDA-MB-468; read-out: Cancer Cell Line GI50 Range MDA-MB-468. In general terms: In SRB staining, fixed cells bind dye roughly in proportion to their protein.
Assay [2] has as its system ovarian cancer cells (PA-1). Description: Cancer cell line growth inhibition (SRB assay). It counts as cell-based. The following applies: Homo sapiens, PA-1; read-out: Cancer Cell Line GI50 Range PA-1.
Another assay deals with TICs (Colon 12). Description: Colon tumor-initiating cell growth inhibition (Alamar Blue). The following applies: 216 h; Colon 12 TICs, 9 days; read-out: Tumor Initiating Cell GI50 Range Colon 12. It counts as cell-based. On the technique in general: The colour change of resazurin is a common sign of viable cells or microbes.

A value given as a limit tells only on which side of the number the result lay.

Usually GI50 stands for the concentration giving 50% growth inhibition. The term IC50 denotes the midpoint of a concentration-inhibition curve. As for `CN1C2CCC1CC(Oc1ccc(-c3n[nH]c4ccc(C(=O)N[C@@H](c5ccccc5)C5CC5)cc34)cc1)C2` (stereo partly drawn) [Example A378, N-((R)-cyclopropyl(phenyl)methyl)-3-(4-(((1R,3R,5S)-8-methyl-8-azabicyclo[3.2.1]octan-3-yl)oxy)phenyl)-1H-indazole-5-carboxamide], the GI50 is less than 100 nM in assay [1]; 100 to 500 nM in the assay with TICs (Ovarian 2393A); 100 to 500 nM in the assay with Breast cancer cells; less than 100 nM in assay [2]; 100 to 500 nM in the assay with TICs (Colon 12). Further, the half-maximal inhibitory concentration (IC50) on human TTK is less than 100 nM.
Turning to `CC(C)[C@H](NC(=O)c1ccc2[nH]nc(-c3ccc(OC4CCN(C)CC4)c(S(C)(=O)=O)c3)c2c1)c1ccccc1Cl` [Example A259, (S)-N-(1-(2-chlorophenyl)-2-methylpropyl)-3-(4-((1-methylpiperidin-4-yl)oxy)-3-(methylsulfonyl)phenyl)-1H-indazole-5-carboxamide], the GI50 in assay [1] is less than 100 nM; with TICs (Ovarian 2393A) it was less than 100 nM; with Breast cancer cells, less than 100 nM; in assay [2], less than 100 nM; in the assay on TICs (Colon 12), 100 to 500 nM. For the same compound, at human TTK, the half-inhibitory concentration (IC50) is less than 100 nM.
In the case of `O=C(NCC1(N2CCOCC2)CCCCC1)c1ccc2[nH]nc(-c3ccc(N4CCNCC4)cc3)c2c1` [Example A505, N-((1-morpholinocyclohexyl)methyl)-3-(4-(piperazin-1-yl)phenyl)-1H-indazole-5-carboxamide], the concentration for 50% growth inhibition (GI50) was less than 100 nM in assay [1]; 100 to 500 nM in the assay with TICs (Ovarian 2393A); 100 to 500 nM in the assay with Breast cancer cells; less than 100 nM in assay [2]; more than 500 nM with TICs (Colon 12). At human TTK, the IC50 was less than 100 nM.
As to `CN1CCC(Oc2ccc(-c3n[nH]c4ccc(C(=O)NC(c5ccccc5)C5CC5)cc34)cc2S(C)(=O)=O)CC1` (stereo not drawn) [Example A246, N-(cyclopropyl(phenyl)methyl)-3-(4-((1-methylpiperidin-4-yl)oxy)-3-(methylsulfonyl)phenyl)-1H-indazole-5-carboxamide], the 50% growth inhibitory concentration (GI50) in assay [1] is 100 to 500 nM; in the assay on TICs (Ovarian 2393A), more than 500 nM; with Breast cancer cells, more than 500 nM; in assay [2], less than 100 nM; in the assay on TICs (Colon 12), more than 500 nM. For the same compound, on human TTK, the half-inhibitory concentration (IC50) is less than 100 nM.
As to `CC(C)[C@H](NC(=O)c1ccc2[nH]nc(-c3ccc(OC4CCN(C[C@@H](O)C(F)(F)F)CC4)cc3)c2c1)c1ccccc1Cl` [Example A228, N-((S)-1-(2-chlorophenyl)-2-methylpropyl)-3-(4-((1-((R)-3,3,3-trifluoro-2-hydroxypropyl)piperidin-4-yl)oxy)phenyl)-1H-indazole-5-carboxamide], the 50% growth inhibitory concentration (GI50) in assay [1] is 100 to 500 nM; in the assay on TICs (Ovarian 2393A) it was 100 to 500 nM; with Breast cancer cells, 100 to 500 nM; in assay [2] it was 100 to 500 nM; in the assay on TICs (Colon 12) it was more than 500 nM. On human TTK, the 50% inhibitory concentration (IC50) was less than 100 nM.
Take `CC(C)C[C@H](NC(=O)c1ccc2[nH]nc(-c3ccc(N4C5CCC4CC(O)C5)cc3)c2c1)c1ccccc1` (stereo partly drawn) [Example A368, 3-(4-((1R,3S,5S)-3-hydroxy-8-azabicyclo[3.2.1]octan-8-yl)phenyl)-N-((S)-3-methyl-1-phenylbutyl)-1H-indazole-5-carboxamide]: the concentration for 50% growth inhibition (GI50) in assay [1] is less than 100 nM; in the assay on TICs (Ovarian 2393A), 100 to 500 nM; with Breast cancer cells, 100 to 500 nM; in assay [2], less than 100 nM; in the assay on TICs (Colon 12), less than 100 nM. At human TTK, the half-inhibitory concentration (IC50) is less than 100 nM.
Consider `CN1CCC2(CC1)CC(=O)c1cc(-c3n[nH]c4ccc(C(=O)N[C@H](c5ccccn5)C5CC5)cc34)ccc1O2` [Example A257, (S)-N-(cyclopropyl(pyridin-2-yl)methyl)-3-(1′-methyl-4-oxospiro[chroman-2,4′-piperidin]-6-yl)-1H-indazole-5-carboxamide], for which the concentration for 50% growth inhibition (GI50) in assay [1] is less than 100 nM; with TICs (Ovarian 2393A), 100 to 500 nM; with Breast cancer cells, 100 to 500 nM; in assay [2], less than 100 nM; in the assay with TICs (Colon 12) it was 100 to 500 nM. In addition, the IC50 on human TTK was less than 100 nM.
On to `O=C(NC(c1ccsc1)C1CCC1)c1ccc2[nH]nc(-c3ccc(O[C@H]4C[C@H]5CC[C@@H](C4)N5C4COC4)cc3)c2c1` (stereo partly drawn) [Example A326, N-(cyclobutyl(thiophen-3-yl)methyl)-3-(4-(((1R,3R,5S)-8-(oxetan-3-yl)-8-azabicyclo[3.2.1]octan-3-yl)oxy)phenyl)-1H-indazole-5-carboxamide], for which the concentration for 50% growth inhibition (GI50) is 100 to 500 nM in assay [1]; less than 100 nM in the assay on TICs (Ovarian 2393A); 100 to 500 nM in the assay with Breast cancer cells; 100 to 500 nM in assay [2]; less than 100 nM in the assay with TICs (Colon 12). Besides, the IC50 at human TTK is less than 100 nM.
As for `CN1[C@@H]2CC[C@H]1C[C@@H](Oc1ccc(-c3n[nH]c4ccc(C(=O)NC(c5ccccn5)C5CCCC5)cc34)cc1)C2` (stereo partly drawn) [Example A244, N-(cyclopentyl(pyridin-2-yl)methyl)-3-(4-(((1R,3R,5S)-8-methyl-8-azabicyclo[3.2.1]octan-3-yl)oxy)phenyl)-1H-indazole-5-carboxamide], the GI50 in assay [1] is less than 100 nM; in the assay with TICs (Ovarian 2393A), 100 to 500 nM; in the assay with Breast cancer cells, 100 to 500 nM; in assay [2] it was less than 100 nM; with TICs (Colon 12) it was 100 to 500 nM. Besides, the half-inhibitory concentration (IC50) at human TTK was less than 100 nM.
In the case of `O=C(N[C@H](c1ccccn1)C1CCCC1)c1ccc2[nH]nc(-c3ccc(N4CC(C5COC5)C4)cc3)c2c1` [Example A309, (S)-N-(cyclopentyl(pyridin-2-yl)methyl)-3-(4-(3-(oxetan-3-yl)azetidin-1-yl)phenyl)-1H-indazole-5-carboxamide], the 50% growth inhibitory concentration (GI50) (in assay [1]; in the assay with TICs (Ovarian 2393A); with Breast cancer cells; in assay [2]; in the assay on TICs (Colon 12)) was less than 100 nM each time. The half-inhibitory concentration (IC50) on human TTK is less than 100 nM.
In the case of `CN1C2CCC1CC(Oc1ccc(-c3n[nH]c4ccc(C(=O)N[C@H](c5ccccc5)C5CC5)cc34)cc1)C2` (stereo partly drawn) [Example A376, N-((S)-cyclopropyl(phenyl)methyl)-3-(4-(((1R,3R,5S)-8-methyl-8-azabicyclo[3.2.1]octan-3-yl)oxy)phenyl)-1H-indazole-5-carboxamide], the 50% growth inhibitory concentration (GI50) was less than 100 nM in assay [1]; 100 to 500 nM in the assay on TICs (Ovarian 2393A); 100 to 500 nM with Breast cancer cells; less than 100 nM in assay [2]; 100 to 500 nM in the assay with TICs (Colon 12). Besides, the half-maximal inhibitory concentration (IC50) on human TTK was less than 100 nM.
`CC(C)C(NC(=O)c1ccc2[nH]nc(-c3ccc(OC4CC5CCC(C4)N5C)cc3)c2c1)c1ccccn1` (stereo not drawn) [Example A395, N-(2-methyl-1-(pyridin-2-yl)propyl)-3-(4-((8-methyl-8-azabicyclo [3.2.1]octan-3-yl)oxy)phenyl)-1H-indazole-5-carboxamide]: the 50% growth inhibitory concentration (GI50) in assay [1] was less than 100 nM; in the assay on TICs (Ovarian 2393A), 100 to 500 nM; with Breast cancer cells it was less than 100 nM; in assay [2], less than 100 nM; with TICs (Colon 12), less than 100 nM. The 50% inhibitory concentration (IC50) on human TTK was less than 100 nM.
On to `CN1[C@@H]2CC[C@H]1C[C@@H](Oc1ccc(-c3n[nH]c4ccc(C(=O)NC(c5ccsc5)C5CCC5)cc34)cc1)C2` (stereo partly drawn) [Example A283, N-(cyclobutyl(thiophen-3-yl)methyl)-3-(4-(((1R,3R,5S)-8-methyl-8-azabicyclo[3.2.1]octan-3-yl)oxy)phenyl)-1H-indazole-5-carboxamide], for which the GI50 in assay [1] was less than 100 nM; with TICs (Ovarian 2393A), 100 to 500 nM; in the assay on Breast cancer cells, 100 to 500 nM; in assay [2], less than 100 nM; in the assay on TICs (Colon 12), 100 to 500 nM. Moreover, at human TTK, the half-inhibitory concentration (IC50) was less than 100 nM.
As for `CN1[C@@H]2CCC[C@H]1C[C@@H](Oc1ccc(-c3n[nH]c4ccc(C(=O)NC(c5ccccn5)C5CCCC5)cc34)cc1)C2` (stereo partly drawn) [Example A391, N-(cyclopentyl(pyridin-2-yl)methyl)-3-(4-(((1R,3R,5S)-9-methyl-9-azabicyclo[3.3.1]nonan-3-yl)oxy)phenyl)-1H-indazole-5-carboxamide], the concentration for 50% growth inhibition (GI50) in assay [1] was less than 100 nM; in the assay on TICs (Ovarian 2393A) it was 100 to 500 nM; in the assay with Breast cancer cells, 100 to 500 nM; in assay [2] it was less than 100 nM; in the assay on TICs (Colon 12), less than 100 nM. Moreover, on human TTK, the half-inhibitory concentration (IC50) is less than 100 nM.
In the case of `CC1=CC2(CCN(C)CC2)Oc2ccc(-c3n[nH]c4ccc(C(=O)N[C@H](c5ccccc5Cl)C(C)C)cc34)cc21` [Example A258, (S)-N-(1-(2-chlorophenyl)-2-methylpropyl)-3-(1′,4-dimethylspiro[chromene-2,4′-piperidin]-6-yl)-1H-indazole-5-carboxamide], the GI50 (in assay [1]; in the assay with TICs (Ovarian 2393A); with Breast cancer cells; in assay [2]; in the assay on TICs (Colon 12)) was less than 100 nM each time. For the same compound, the IC50 at human TTK was less than 100 nM.
